The results in this text go back to ChEMBL document CHEMBL6096698, “Discovery of a Selective and Orally Bioavailable RET Degrader with Effectiveness in Various Mutations” (J Med Chem, 2025).

Structures are written as SMILES. Where only a bound is given, the exact number is not on record here.

In assay [1] the test system is BaF3. Kind of assay: Antiproliferative activity against mouse BaF3 cells stably expressing KIF5B-RET V804M mutant incubated for 72 hrs by CCK8 assay. It is filed as functional, cell-based. As to conditions: BaF3, 72 h. Background: Formazan colour is commonly taken as a measure of viable cells.
The test system of assay [2] is BaF3. Description: Antiproliferative activity against mouse BaF3 cells stably expressing KIF5B-RET G810S mutant incubated for 72 hrs by CCK8 assay. In kind it is functional, cell-based. Conditions: BaF3, 72 h.
Assay [3] relates to BaF3. Kind of assay: PROTAC activity at CRBN/KIF5B-RET (unknown origin) expressed in mouse BaF3 cells assessed as induction of RET degradation at 10 nM incubated for 24 hrs by immunoblot analysis relative to control. In kind it is cell-based. A general note: In western blotting, separated proteins are transferred to a membrane and probed.
The test system of assay [4] is BaF3. Description: Antiproliferative activity against mouse BaF3 cells stably expressing KIF5B-RET G810R mutant incubated for 72 hrs by CCK8 assay. In kind it is functional, cell-based. Conditions: BaF3, 72 h.
Assay [5] concerns BaF3. Description: Antiproliferative activity against mouse BaF3 cells stably expressing KIF5B-RET incubated for 72 hrs by CCK8 assay. As to conditions: BaF3, 72 h. In kind it is functional, cell-based.
For assay [6], the system named is BaF3. Description: Antiproliferative activity against mouse BaF3 cells stably expressing KIF5B-RET G810C mutant incubated for 72 hrs by CCK8 assay. As to conditions: BaF3, 72 h. In kind it is functional, cell-based.

One may read the IC50 as the concentration that inhibits the measured activity by half. Higher therefore signals weaker potency. Consider `COc1ccc(CN2C3CC2CN(c2ccc(-c4cc(N5CCN(C6CCN(c7ccc8c(c7)C(=O)N(C7CCC(=O)NC7=O)C8=O)CC6)CC5)cn5ncc(C#N)c45)cn2)C3)cn1` (configuration not stated), for which the IC50 was 38.4 nM in the assay on BaF3 [1]; more than 5000 nM in the assay on BaF3 [2]; 750 nM in the assay on BaF3 [4]; 15.7 nM in the assay with BaF3 [5]; 372 nM with BaF3 [6]. For the same compound, in the assay on BaF3 [3], the Activity came to 36%.

Take `COc1ccc(CN2C3CC2CN(c2ccc(-c4cc(N5CCC(N6CCN(CCCC#Cc7cccc8c7C(=O)N(C7CCC(=O)NC7=O)C8=O)CC6)CC5)cn5ncc(C#N)c45)cn2)C3)cn1` (configuration not stated): the IC50 in the assay on BaF3 [1] stood at 9.3 nM; in the assay on BaF3 [2], 63.7 nM; in the assay on BaF3 [4], 206 nM; with BaF3 [5], 4.3 nM; in the assay on BaF3 [6], 54.3 nM. In addition, in the assay on BaF3 [3], the Activity stood at 62%.

On to `COc1ccc(CN2C3CC2CN(c2ccc(-c4cc(N5CCC(N6CCN(CCCCCC#Cc7cccc8c7CN(C7CCC(=O)NC7=O)C8=O)CC6)CC5)cn5ncc(C#N)c45)cn2)C3)cn1` (configuration not stated), for which the IC50 with BaF3 [1] turned out to be 27.6 nM; with BaF3 [2], 105 nM; in the assay with BaF3 [4] it was 737 nM; in the assay on BaF3 [5] it was 12.5 nM; with BaF3 [6], 61.8 nM. In addition, the Activity in the assay on BaF3 [3] turned out to be 40%.

`COc1ccc(CN2C3CC2CN(c2ccc(-c4cc(N5CCC(N6CCN(C(=O)CNc7ccc8c(c7)C(=O)N(C7CCC(=O)NC7=O)C8=O)CC6)CC5)cn5ncc(C#N)c45)cn2)C3)cn1` (configuration not stated): the IC50 with BaF3 [1] was 16.6 nM; in the assay with BaF3 [2], 81.9 nM; in the assay with BaF3 [4], 572 nM; with BaF3 [5], 5.3 nM; with BaF3 [6], 206 nM. For the same compound, the Activity with BaF3 [3] is 52%.

Turning to `COc1ccc(CN2C3CC2CN(c2ccc(-c4cc(N5CCN(C(=O)CCCNc6cccc7c6C(=O)N(C6CCC(=O)NC6=O)C7=O)CC5)cn5ncc(C#N)c45)cn2)C3)cn1` (configuration not stated), the IC50 came out at 142 nM in the assay on BaF3 [1]; 272 nM in the assay on BaF3 [2]; 1140 nM in the assay on BaF3 [4]; 12.2 nM in the assay with BaF3 [5]; 1020 nM in the assay with BaF3 [6]. Also, the Activity in the assay with BaF3 [3] turned out to be 44%.

With `COc1ccc(CN2C3CC2CN(c2ccc(-c4cc(N5CCN(C(=O)CCCCCNc6cccc7c6C(=O)N(C6CCC(=O)NC6=O)C7=O)CC5)cn5ncc(C#N)c45)cn2)C3)cn1` (configuration not stated), the IC50 turned out to be 17.2 nM in the assay on BaF3 [1]; 105 nM with BaF3 [2]; 794 nM in the assay on BaF3 [4]; 6.1 nM with BaF3 [5]; 216 nM with BaF3 [6]. For the same compound, in the assay on BaF3 [3], the Activity was determined as 52%.

Take `COc1ccc(CN2C3CC2CN(c2ccc(-c4cc(N5CCN(CC6CCN(c7ccc8c(c7)C(=O)N(C7CCC(=O)NC7=O)C8=O)CC6)CC5)cn5ncc(C#N)c45)cn2)C3)cn1` (configuration not stated): the IC50 with BaF3 [1] came out at 21.4 nM; in the assay on BaF3 [2], 126 nM; in the assay on BaF3 [4] it was 1890 nM; in the assay on BaF3 [5], 10.3 nM; in the assay with BaF3 [6] it was 192 nM. Besides, the Activity with BaF3 [3] was determined as 41%.

`COc1ccc(CN2C3CC2CN(c2ccc(-c4cc(N5CCC(N6CCN(CCCC#Cc7ccc8c(c7)C(=O)N(C7CCC(=O)NC7=O)C8=O)CC6)CC5)cn5ncc(C#N)c45)cn2)C3)cn1` (configuration not stated): the IC50 came to 12.4 nM in the assay with BaF3 [1]; 84.1 nM in the assay with BaF3 [2]; 321 nM in the assay with BaF3 [4]; 5.1 nM with BaF3 [5]; 89.2 nM in the assay on BaF3 [6]. Further, the Activity with BaF3 [3] was determined as 60%.

Turning to `COc1ccc(CN2C3CC2CN(c2ccc(-c4cc(N5CCN(C(=O)CCCNc6ccc7c(c6)C(=O)N(C6CCC(=O)NC6=O)C7=O)CC5)cn5ncc(C#N)c45)cn2)C3)cn1` (configuration not stated), the half-inhibitory concentration (IC50) in the assay on BaF3 [1] worked out at 209 nM; with BaF3 [2] it was 202 nM; with BaF3 [4], 1640 nM; in the assay on BaF3 [5], 13.3 nM; in the assay with BaF3 [6], 1410 nM. In the assay on BaF3 [3], the Activity amounted to 41%.

As for `COc1ccc(CN2C3CC2CN(c2ccc(-c4cc(N5CCN(C(=O)CCCCCNc6ccc7c(c6)C(=O)N(C6CCC(=O)NC6=O)C7=O)CC5)cn5ncc(C#N)c45)cn2)C3)cn1` (configuration not stated), the IC50 in the assay with BaF3 [1] stood at 17.4 nM; in the assay on BaF3 [2], 125 nM; with BaF3 [4], 811 nM; with BaF3 [5], 6.8 nM; in the assay on BaF3 [6], 232 nM. In addition, the Activity in the assay with BaF3 [3] is 49%.

For `COc1ccc(CN2C3CC2CN(c2ccc(-c4cc(N5CCN(C(=O)CNc6cccc7c6C(=O)N(C6CCC(=O)NC6=O)C7=O)CC5)cn5ncc(C#N)c45)cn2)C3)cn1` (configuration not stated), the IC50 worked out at 190 nM with BaF3 [1]; 384 nM in the assay with BaF3 [2]; 1770 nM with BaF3 [4]; 19 nM in the assay on BaF3 [5]; 1380 nM in the assay on BaF3 [6]. Also, in the assay with BaF3 [3], the Activity is 33%.

As for `COc1ccc(CN2C3CC2CN(c2ccc(-c4cc(N5CCC(N6CCN(C(=O)CCCCCCCNc7ccc8c(c7)C(=O)N(C7CCC(=O)NC7=O)C8=O)CC6)CC5)cn5ncc(C#N)c45)cn2)C3)cn1` (configuration not stated), the IC50 with BaF3 [1] was 14.2 nM; with BaF3 [2] it was 86.1 nM; with BaF3 [4], 614 nM; in the assay on BaF3 [5], 3.4 nM; with BaF3 [6] it was 190 nM. The Activity with BaF3 [3] turned out to be 58%.

In the case of `COc1ccc(CN2C3CC2CN(c2ccc(-c4cc(N5CCN(C(=O)CNc6ccc7c(c6)C(=O)N(C6CCC(=O)NC6=O)C7=O)CC5)cn5ncc(C#N)c45)cn2)C3)cn1` (configuration not stated), the IC50 in the assay on BaF3 [1] is 178 nM; in the assay with BaF3 [2], 176 nM; with BaF3 [4], 1210 nM; in the assay on BaF3 [5], 16.5 nM; in the assay on BaF3 [6] it was 1320 nM. The Activity with BaF3 [3] came to 40%.

For `COc1ccc(CN2C3CC2CN(c2ccc(-c4cc(N5CCC(N6CCN(C(=O)CCCCCCCNc7cccc8c7C(=O)N(C7CCC(=O)NC7=O)C8=O)CC6)CC5)cn5ncc(C#N)c45)cn2)C3)cn1` (configuration not stated), the half-inhibitory concentration (IC50) with BaF3 [1] came out at 17.8 nM; in the assay on BaF3 [2], 93.5 nM; with BaF3 [4], 672 nM; with BaF3 [5], 5.9 nM; in the assay with BaF3 [6] it was 212 nM. Also, the Activity in the assay on BaF3 [3] turned out to be 50%.

Consider `COc1ccc(CN2C3CC2CN(c2ccc(-c4cc(N5CCC(N6CCN(C(=O)CNc7cccc8c7C(=O)N(C7CCC(=O)NC7=O)C8=O)CC6)CC5)cn5ncc(C#N)c45)cn2)C3)cn1` (configuration not stated), for which the IC50 in the assay on BaF3 [1] came out at 15.3 nM; with BaF3 [2], 89.8 nM; with BaF3 [4], 626 nM; with BaF3 [5], 14.4 nM; in the assay with BaF3 [6], 198 nM. Moreover, the Activity in the assay with BaF3 [3] was found to be 36%.

For `COc1ccc(CN2C3CC2CN(c2ccc(-c4cc(N5CCN(C(=O)CCCCCCCNc6ccc7c(c6)C(=O)N(C6CCC(=O)NC6=O)C7=O)CC5)cn5ncc(C#N)c45)cn2)C3)cn1` (configuration not stated), the IC50 with BaF3 [1] was 14.1 nM; with BaF3 [2], 102 nM; with BaF3 [4], 714 nM; in the assay with BaF3 [5], 5.7 nM; with BaF3 [6], 228 nM. Besides, the Activity with BaF3 [3] amounted to 52%.

For `COc1ccc(CN2C3CC2CN(c2ccc(-c4cc(N5CCC(N6CCN(C(=O)CCCNc7ccc8c(c7)C(=O)N(C7CCC(=O)NC7=O)C8=O)CC6)CC5)cn5ncc(C#N)c45)cn2)C3)cn1` (configuration not stated), the IC50 came to 152 nM with BaF3 [1]; 127 nM in the assay on BaF3 [2]; 812 nM with BaF3 [4]; 14.9 nM in the assay with BaF3 [5]; 831 nM in the assay on BaF3 [6]. Besides, the Activity in the assay on BaF3 [3] stood at 39%.
